In article PMC12764611 (Nature Communications, 2025):

Molecular target: T1, IGFBP7 (endogenous, HK-2 cells, CETSA) (Homo sapiens, UniProt Q16270)
T1 sequence (Q16270 27-282): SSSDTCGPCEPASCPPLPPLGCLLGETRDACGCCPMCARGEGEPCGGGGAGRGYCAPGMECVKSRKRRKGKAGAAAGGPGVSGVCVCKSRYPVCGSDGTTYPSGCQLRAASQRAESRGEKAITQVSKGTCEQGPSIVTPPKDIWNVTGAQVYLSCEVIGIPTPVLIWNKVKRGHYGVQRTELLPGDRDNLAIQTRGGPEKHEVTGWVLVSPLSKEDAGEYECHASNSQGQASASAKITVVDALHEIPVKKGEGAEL
Experiment: cellular thermal shift assay, immunoblot
Type: cell-based
Conditions: HK-2 cells with or without LA pretreatment, then lysed and heated

SMILES: CN1c2c(nc(N)[nH]c2=O)NC[C@@H]1CNc1ccc(C(=O)N[C@@H](CCC(=O)O)C(=O)O)cc1 [levomefolic acid]
- cellular thermal shift assay, immunoblot: analysis showing the stabilisation of IGFBP7 in vitro, with or without LA treatment
